Reference: PubChem BioAssay AID330 (DTP/NCI, 2004)
Values joined by “and” are separate entries in the source; they are usually repeats but may differ in a detail not shown here. Equal entries are not always repeated. Inconclusive results and toxic doses are left out.

Tested on: P388 leukemia ip, CD2F1 mice, survival T/C
Assay: NCI In Vivo Anticancer Drug Screen. Data for tumor model P388 Leukemia (intraperitoneal) in CD2F1 (CDF1) mice
Details: endpoint: median survival time, higher = longer survival
Outline: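 Mice carrying the transplanted tumor received test compound or vehicle. Survival was recorded in each group, and the value is the treated-group measurement divided by that of the vehicle-treated control group.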

[1] = dose: 25.0 mg/kg/injection, schedule: Q01DX005 (ip), vehicle: saline with Tween-80
[2] = dose: 50.0 mg/kg/injection, schedule: Q01DX005 (ip), vehicle: saline with Tween-80
[3] = dose: 100.0 mg/kg/injection, schedule: Q01DX005 (ip), vehicle: saline with Tween-80
[4] = dose: 200.0 mg/kg/injection, schedule: Q01DX005 (ip), vehicle: saline with Tween-80
[5] = dose: 50.0 mg/kg/injection, schedule: Q01DX005 (ip), vehicle: Klucel (hydroxypropylcellulose) (HPC)
[6] = dose: 100.0 mg/kg/injection, schedule: Q01DX005 (ip), vehicle: Klucel (hydroxypropylcellulose) (HPC)
[7] = dose: 200.0 mg/kg/injection, schedule: Q01DX005 (ip), vehicle: Klucel (hydroxypropylcellulose) (HPC)
[8] = dose: 50.0 mg/kg/injection, schedule: Q01DX005 (ip), vehicle: saline
[9] = dose: 100.0 mg/kg/injection, schedule: Q01DX005 (ip), vehicle: saline
[10] = dose: 3.13 mg/kg/injection, schedule: Q01DX009 (ip), vehicle: water
[11] = dose: 6.25 mg/kg/injection, schedule: Q01DX009 (ip), vehicle: water
[12] = dose: 12.5 mg/kg/injection, schedule: Q01DX009 (ip), vehicle: water
[13] = dose: 25.0 mg/kg/injection, schedule: Q01DX009 (ip), vehicle: saline
[14] = dose: 25.0 mg/kg/injection, schedule: Q01DX009 (ip), vehicle: water
[15] = dose: 50.0 mg/kg/injection, schedule: Q01DX009 (ip), vehicle: saline
[16] = dose: 50.0 mg/kg/injection, schedule: Q01DX009 (ip), vehicle: water
[17] = dose: 100.0 mg/kg/injection, schedule: Q01DX009 (ip), vehicle: saline
[18] = dose: 60.0 mg/kg/injection, schedule: Q01DX005 (ip), vehicle: saline with Tween-80
[19] = dose: 120.0 mg/kg/injection, schedule: Q01DX005 (ip), vehicle: saline with Tween-80
[20] = dose: 240.0 mg/kg/injection, schedule: Q01DX005 (ip), vehicle: saline with Tween-80

COc1cc2c(cc1C(C)c1ccc(OC(C)C)cc1)OCO2 (stereo not given)
T/C [1]: 103 % of control
T/C [2]: 98 % of control
T/C [3]: 100 % of control
T/C [4]: 98 % of control

Fc1ccc(Nc2c3ccccc3nc3c2cnn3-c2ccccc2)cc1
T/C [5]: 91 % of control
T/C (dose: 60.0 mg/kg/injection, schedule: Q01DX005 (ip), vehicle: Klucel (hydroxypropylcellulose) (HPC)): 86 % of control
T/C [6]: 87 % of control
T/C [7]: 87 % of control
T/C (dose: 240.0 mg/kg/injection, schedule: Q01DX005 (ip), vehicle: Klucel (hydroxypropylcellulose) (HPC)): 90 % of control

O=C(Nc1ccccc1)c1csc(-c2csc(CCNC(=O)C(F)(F)F)n2)n1
T/C (dose: 12.5 mg/kg/injection, schedule: Q01DX009 (ip), vehicle: distilled water + Tween-80): 88 % of control
T/C (dose: 25.0 mg/kg/injection, schedule: Q01DX009 (ip), vehicle: distilled water + Tween-80): 88 % of control
T/C (dose: 100.0 mg/kg/injection, schedule: Q01DX009 (ip), vehicle: distilled water + Tween-80): 88 % of control
T/C (dose: 200.0 mg/kg/injection, schedule: Q01DX009 (ip), vehicle: distilled water + Tween-80): 89 % of control

O=C(O)C[N-]c1ccccc1.O=C(O)C[N-]c1ccccc1.[Ni+2]
T/C (dose: 6.25 mg/kg/injection, schedule: Q01DX009 (ip), vehicle: saline with Tween-80): 86 % of control
T/C (dose: 12.5 mg/kg/injection, schedule: Q01DX009 (ip), vehicle: saline with Tween-80): 91 % of control

CCCn1c(CC)nc([N+](=O)[O-])c1Sc1ncn[nH]1
T/C (dose: 25.0 mg/kg/injection, schedule: Q01DX005 (ip), vehicle: Klucel (hydroxypropylcellulose) (HPC)): 123 % of control
T/C [5]: 108 % of control
T/C [7]: 113 % of control

OCC1(c2cccnc2)OCCO1
T/C [8]: 99 % of control
T/C [9]: 101 % of control
T/C (dose: 200.0 mg/kg/injection, schedule: Q01DX005 (ip), vehicle: saline): 101 % of control

Cc1ccsc1C(=O)c1ccccc1[N+](=O)[O-]
T/C [5]: 94 % of control
T/C [6]: 94 % of control
T/C [7]: 100 % of control

COc1cc2c(c(O)c1O)-c1ccc(OC)c(=O)cc1C(NC(C)=O)CC2 (stereo not given)
T/C (dose: 1.25 mg/kg/injection, schedule: Q01DX009 (ip), vehicle: water): 97 % of control
T/C (dose: 2.5 mg/kg/injection, schedule: Q01DX009 (ip), vehicle: water): 97 % of control
T/C (dose: 5.0 mg/kg/injection, schedule: Q01DX009 (ip), vehicle: water): 100 % of control
T/C (dose: 10.0 mg/kg/injection, schedule: Q01DX009 (ip), vehicle: water): 100 % of control
T/C (dose: 20.0 mg/kg/injection, schedule: Q01DX009 (ip), vehicle: water): 97 % of control
T/C (dose: 40.0 mg/kg/injection, schedule: Q01DX009 (ip), vehicle: distilled water + Tween-80): 108 % of control
T/C (dose: 80.0 mg/kg/injection, schedule: Q01DX009 (ip), vehicle: distilled water + Tween-80): 122 % of control

CCC1CCC2CCOCN2C1 (stereo not given)
T/C [8]: 97 % of control
T/C [9]: 94 % of control

CC(=O)N1C=Cc2ccccc2C1(Br)C1(Br)c2ccccc2C=CN1C(C)=O (stereo not given)
T/C [1]: 97 % of control
T/C [2]: 99 % of control
T/C [3]: 89 % of control

COC(CNCc1ccccc1)OC
T/C (dose: 37.5 mg/kg/injection, schedule: Q04DX003 (ip), vehicle: saline): 98 % of control
T/C (dose: 75.0 mg/kg/injection, schedule: Q04DX003 (ip), vehicle: saline): 104 % of control
T/C (dose: 150.0 mg/kg/injection, schedule: Q04DX003 (ip), vehicle: saline): 95 % of control
T/C (dose: 300.0 mg/kg/injection, schedule: Q04DX003 (ip), vehicle: saline): 98 % of control

CC(=O)C(=Cc1ccc(Cl)cc1)C(C)=O
T/C [2]: 97 % of control
T/C [3]: 101 % of control

COc1cccc2c1C(=O)c1c(O)c3c(c(O)c1C2=O)C[C@@](O)(/C(C)=N/NS(C)(=O)=O)C[C@@H]3OC1CC(N)C(O)C(C)O1 (stereo not given in full)
T/C [10]: 157 % of control
T/C [11]: 164 % of control and 166 % of control
T/C [12]: 183 % of control and 187 % of control
T/C [13]: 166 % of control
T/C [14]: 117 % of control and 201 % of control
T/C [15]: 193 % of control
T/C [16]: 99 % of control
T/C [17]: 283 % of control
T/C (dose: 200.0 mg/kg/injection, schedule: Q01DX009 (ip), vehicle: saline): 108 % of control

CC1C(c2ccccc2)OCCN1C(=S)NC(=O)c1ccccc1 (stereo not given)
T/C (dose: 25.0 mg/kg/injection, schedule: Q01DX009 (ip), vehicle: Klucel (hydroxypropylcellulose) (HPC)): 102 % of control
T/C (dose: 50.0 mg/kg/injection, schedule: Q01DX009 (ip), vehicle: Klucel (hydroxypropylcellulose) (HPC)): 101 % of control
T/C (dose: 100.0 mg/kg/injection, schedule: Q01DX009 (ip), vehicle: Klucel (hydroxypropylcellulose) (HPC)): 100 % of control
T/C (dose: 200.0 mg/kg/injection, schedule: Q01DX009 (ip), vehicle: Klucel (hydroxypropylcellulose) (HPC)): 111 % of control

COC(=O)/N=c1\cc(N2CC=CCC2)nc(N)n1O
T/C [18]: 94 % of control
T/C [19]: 94 % of control
T/C [20]: 91 % of control

CCCCCCC(=O)/C=C/c1ccc2c(c1)OCO2
T/C (dose: 50.0 mg/kg/injection, schedule: Q01DX009 (ip), vehicle: saline with Tween-80): 96 % of control
T/C (dose: 100.0 mg/kg/injection, schedule: Q01DX009 (ip), vehicle: saline with Tween-80): 102 % of control
T/C (dose: 200.0 mg/kg/injection, schedule: Q01DX009 (ip), vehicle: saline with Tween-80): 91 % of control

C[N+](C)(N)Cc1nc(-c2ccc(Cl)cc2)no1
T/C [15]: 98 % of control
T/C [17]: 93 % of control

O=C1c2ccccc2C(=O)c2c1cccc2N1C(=O)C=CC1=O
T/C [18]: 101 % of control
T/C [19]: 95 % of control
T/C [20]: 93 % of control

CCOC(=O)CNC(=O)NN(c1ccccc1)C1CCS(=O)(=O)C1 (stereo not given)
T/C [2]: 100 % of control
T/C [3]: 90 % of control
T/C [4]: 94 % of control

COc1c(I)c2c(c(OC)c1OC)-c1ccc(OC)c(=O)cc1C(NC(C)=O)CC2 (stereo not given)
T/C (dose: 6.25 mg/kg/injection, schedule: Q01DX009 (ip), vehicle: Klucel (hydroxypropylcellulose) (HPC)): 178 % of control
T/C (dose: 12.5 mg/kg/injection, schedule: Q01DX009 (ip), vehicle: Klucel (hydroxypropylcellulose) (HPC)): 167 % of control

COC(CNCC(OC)OC)OC
T/C [10]: 96 % of control
T/C [11]: 102 % of control
T/C [12]: 95 % of control
T/C [14]: 102 % of control
T/C [16]: 93 % of control
T/C (dose: 100.0 mg/kg/injection, schedule: Q01DX009 (ip), vehicle: water): 104 % of control

Cc1nc(N)c(C#N)c(-c2ccccc2)c1-c1ccccc1
T/C (dose: 100.0 mg/kg/injection, schedule: Q01DX001 (ip), vehicle: saline with Tween-80): 92 % of control
T/C (dose: 200.0 mg/kg/injection, schedule: Q01DX001 (ip), vehicle: saline with Tween-80): 90 % of control
T/C (dose: 400.0 mg/kg/injection, schedule: Q01DX001 (ip), vehicle: saline with Tween-80): 106 % of control

O=c1oc2c(-c3c(O)c(=O)oc4ccccc34)cc(O)cc2s1
T/C [5]: 96 % of control
T/C [6]: 103 % of control
T/C [7]: 104 % of control

C=C1C(=O)O[C@H]2[C@H]1[C@H](OC(=O)/C(C)=C\C)CC(=C)[C@@H]1[C@H](O)[C@H]3O[C@@]3(C)[C@@]12O
T/C (dose: 6.25 mg/kg/injection, schedule: Q01DX009 (ip), vehicle: saline): 102 % of control
T/C (dose: 12.5 mg/kg/injection, schedule: Q01DX009 (ip), vehicle: saline): 106 % of control and 111 % of control
T/C [13]: 112 % of control and 113 % of control
T/C [15]: 121 % of control
T/C [17]: 109 % of control

COC(=O)C(Cc1ccccc1C#N)(OC)OC
T/C [2]: 98 % of control
T/C [3]: 101 % of control
T/C [4]: 98 % of control

Nc1nc(=S)c2[nH]c(N=Nc3ccc(S(=O)(=O)O)cc3)nc2[nH]1
T/C (dose: 6.25 mg/kg/injection, schedule: Q04DX003 (ip), vehicle: saline): 123 % of control

Cc1cc(=O)[nH]c(=O)n1CCCN(C)CCCn1c(C)cc(=O)[nH]c1=O
T/C [18]: 99 % of control
T/C [19]: 103 % of control
T/C [20]: 102 % of control
